Experimental data taken from patent US8536175B2, “Quinoxaline carboxamide derivatives as protein tyrosine kinase inhibitors” (Novartis AG, priority 2008, dated 2013).
pIC50: −log10 of the molar value. Where two headings read alike, the source gives them in different places.

Biological target: FGFR3 kinase (Homo sapiens (Human), UniProt P22607, K650E)
Assay: FGFR3 kinase inhibition (protein kinase activity assays)
Format: biochemical
Method: generic assay set-up: Enzyme activities were measured by mixing 10 μL of a 3-fold concentrated compound solution or control with 10 μL of the corresponding substrate mixture (peptidic substrate, ATP and [γ^33P]ATP). The reactions were initiated by addition of 10 μL of a 3-fold concentrated solution of the respective enzyme in assay buffer. […] Filter binding (FB) method: FB assays were carried out in 96-well plates at room temperature for 10 min in a finial volume of 30 μL including the components as indicated in section above. […] After spotting, vacuum was connected and each well rinsed with 200 μL 0.5% H3PO4. Free membranes were removed and washed 4 times on a shaker with 1% H3PO4 and once with ethanol. Membranes were dried and overlaid with addition of 10 μL/well of a scintillation fluid. The plates were eventually sealed and counted in a microplate scintillation counter. IC50 values were calculated by linear regression analysis of the percentage inhibition of the compound.
generic assay set-up: The assay has been run at room temperature on a liquid handling robot. […] After an incubation time of 45 min in the dark, the plates were transferred into a fluorescence reader for counting.
Compounds of formula (I) are assayed to measure their capacity to inhibit FGFR3 kinase as described above.

[1] = read-out: rating (FGFR3 kinase IC50)
[2] = average of 2 independent measurements, * single value, read-out: FGFR3 IC50

FGFR3 kinase, sequence (P22607 23-806 K650E): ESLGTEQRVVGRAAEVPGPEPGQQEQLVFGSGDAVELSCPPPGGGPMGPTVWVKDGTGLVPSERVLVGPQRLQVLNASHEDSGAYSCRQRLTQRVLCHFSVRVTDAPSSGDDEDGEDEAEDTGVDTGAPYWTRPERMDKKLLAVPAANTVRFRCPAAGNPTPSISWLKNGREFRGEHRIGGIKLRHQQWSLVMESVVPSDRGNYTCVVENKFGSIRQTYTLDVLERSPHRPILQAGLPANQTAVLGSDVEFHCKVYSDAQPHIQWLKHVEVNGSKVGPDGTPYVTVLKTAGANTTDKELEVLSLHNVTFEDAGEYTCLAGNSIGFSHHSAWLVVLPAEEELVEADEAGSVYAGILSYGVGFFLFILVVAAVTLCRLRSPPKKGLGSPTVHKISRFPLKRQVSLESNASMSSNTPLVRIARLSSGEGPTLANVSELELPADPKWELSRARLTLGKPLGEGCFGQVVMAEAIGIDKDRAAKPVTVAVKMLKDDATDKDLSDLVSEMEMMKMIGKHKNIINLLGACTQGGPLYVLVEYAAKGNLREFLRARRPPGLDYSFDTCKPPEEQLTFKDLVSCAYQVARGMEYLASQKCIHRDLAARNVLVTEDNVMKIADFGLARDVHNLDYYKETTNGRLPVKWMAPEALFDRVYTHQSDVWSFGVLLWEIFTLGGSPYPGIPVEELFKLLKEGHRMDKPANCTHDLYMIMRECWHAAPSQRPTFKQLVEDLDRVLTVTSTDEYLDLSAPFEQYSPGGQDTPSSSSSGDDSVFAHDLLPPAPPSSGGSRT

| Compound | pIC50 [1] | pIC50 [2] |
| --- | --- | --- |
| CCN1CCN(c2ccc(NC(=O)c3ccc(-c4c(Cl)c(OC)cc(OC)c4Cl)c4nccnc34)cc2)CC1 [Example 1, 8-(2,6-Dichloro-3,5-dimethoxy-phenyl)-quinoxaline-5-carboxylic acid [4-(4-ethyl-piperazin-1-yl)-phenyl]-amide] | > 7.00 | – |
| COc1cc(OC)c(Cl)c(-c2ccc(C(=O)Nc3ccc(C(N)=O)cc3)c3nccnc23)c1Cl [Example 3, 8-(2,6-Dichloro-3,5-dimethoxy-phenyl)-quinoxaline-5-carboxylic acid (4-carbamoyl-phenyl)-amide] | – | < 5.00 |
| COc1cc(OC)c(Cl)c(-c2ccc(C(=O)Nc3ccc(O)cc3)c3nccnc23)c1Cl [Example 7, 8-(2,6-Dichloro-3,5-dimethoxy-phenyl)-quinoxaline-5-carboxylic acid (4-hydroxyphenyl)-amide] | 4.30 to 6.30 | – |
| COc1cc(OC)c(Cl)c(-c2ccc(C(=O)Nc3ccc(N4CCN(C(C)C)CC4)nc3)c3nccnc23)c1Cl [Example 33, 8-(2,6-Dichloro-3,5-dimethoxy-phenyl)-quinoxaline-5-carboxylic acid [6-(4-isopropyl-piperazin-1-yl)-pyridin-3-yl]-amide] | > 7.00 | – |
| COc1cc(OC)c(Cl)c(-c2ccc(C(=O)Nc3ccc(N(C)C4CCN(C)CC4)nc3)c3nccnc23)c1Cl [Example 37, 8-(2,6-Dichloro-3,5-dimethoxy-phenyl)-quinoxaline-5-carboxylic acid {6-[methyl-(1-methyl-piperidin-4-yl)-amino]-pyridin-3-yl}-amide] | > 7.00 | – |
| COc1ccc(Cl)c(-c2ccc(C(=O)Nc3ccc(OCCN(C)C)cc3)c3nccnc23)c1 [Example 65, 8-(2-Chloro-5-methoxy-phenyl)-quinoxaline-5-carboxylic acid [4-(2-dimethylamino-ethoxy)-phenyl]-amide] | 4.30 to 6.30 | – |
| Cc1cscc1-c1ccc(C(=O)Nc2nc(CN3CCN(C)CC3)c[nH]2)c2nccnc12 [Example 69, 8-(4-Methyl-thiophen-3-yl)-quinoxaline-5-carboxylic acid [4-(4-methyl-piperazin-1-ylmethyl)-1H-imidazol-2-yl]amide] | – | < 5.00 |
| CCN1CCN(c2ccc(NC(=O)c3ccc(-c4c(C)cccc4C)c4nccnc34)cc2)CC1 [Example 72, 8-(2,6-Dimethyl-phenyl)-quinoxaline-5-carboxylic acid [4-(4-ethyl-piperazin-1-yl)-phenyl]-amide] | 4.30 to 6.30 | – |
| Cc1cccc(C)c1-c1ccc(C(=O)Nc2nc(CN3CCN(C)CC3)c[nH]2)c2nccnc12 [Example 77, 8-(2,6-Dimethyl-phenyl)-quinoxaline-5-carboxylic acid [4-(4-methyl-piperazin-1-ylmethyl)-1H-imidazol-2-yl]-amide] | – | < 5.00 |
| COc1cc(OC)c(Cl)c(-c2ccc(C(=O)Nc3ccc(CN(C)CCN(C)C)cn3)c3nccnc23)c1Cl [Example 81, 8-(2,6-Dichloro-3,5-dimethoxy-phenyl)-quinoxaline-5-carboxylic acid (5-{[(2-dimethylamino-ethyl)-methyl-amino]-methyl}-pyridin-2-yl)-amide] | > 7.00 | – |
| COc1cc(OC)c(Cl)c(-c2ccc(C(=O)Nc3cccnc3)c3ncc(N(C)CCN(C)C)nc23)c1Cl [Example 87, 8-(2,6-Dichloro-3,5-dimethoxy-phenyl)-2-[(2-dimethylamino-ethyl)-methylamino]-quinoxaline-5-carboxylic acid pyridin-3-ylamide] | 4.30 to 6.30 | – |
| COc1cc(OC)c(F)c(-c2ccc(C(=O)Nc3ccc(CN4CCN(C)CC4)nc3)c3nccnc23)c1F [Example 89, 8-(2,6-Difluoro-3,5-dimethoxy-phenyl)-quinoxaline-5-carboxylic acid [6-(4-methyl-piperazin-1-ylmethyl)-pyridin-3-yl]-amide] | > 7.00 | – |
| COc1cc(OC)c(F)c(-c2ccc(C(=O)Nc3cccnc3)c3nccnc23)c1F [Example 90, 8-(2,6-Difluoro-3,5-dimethoxy-phenyl)-quinoxaline-5-carboxylic acid pyridin-3-ylamide] | 6.30 to 7.00 | – |
| COc1cc(OC)c(Cl)c(-c2ccc(C(=O)Nc3ccn(CCN(C)C)c3)c3nccnc23)c1Cl [Example 121, 8-(2,6-Dichloro-3,5-dimethoxy-phenyl)-quinoxaline-5-carboxylic acid [1-(2-dimethylamino-ethyl)-1H-pyrrol-3-yl]-amide] | 4.30 to 6.30 | – |
| COc1cc(OC)c(F)c(-c2ccc(C(=O)Nc3ccc(CN4CCS(=O)(=O)CC4)cn3)c3nccnc23)c1F [Example 140, 8-(2,6-Difluoro-3,5-dimethoxy-phenyl)-quinoxaline-5-carboxylic acid [5-(1,1-dioxo-thiomorpholin-4-ylmethyl)-pyridin-2-yl]-amide] | > 7.00 | – |
| COc1cc(OC)c(Cl)c(-c2ccc(C(=O)Nc3ncc[nH]3)c3ncccc23)c1Cl [Example 161, 5-(2,6-Dichloro-3,5-dimethoxy-phenyl)-quinoline-8-carboxylic acid (1H-imidazol-2-yl)-amide] | > 7.00 | – |
| COc1cc(OC)c(Cl)c(-c2ccc(C(=O)Nc3nnc[nH]3)c3nccnc23)c1Cl [Example 163, 8-(2,6-Dichloro-3,5-dimethoxy-phenyl)-quinoxaline-5-carboxylic acid (4H-[1,2,4]triazol-3-yl)-amide] | 4.30 to 6.30 | – |
| COc1cc(OC)c(Cl)c(-c2ccc(C(=O)Nc3ccc(CN4CCN(C)CC4)cn3)c3ncccc23)c1Cl [Example 164, 5-(2,6-Dichloro-3,5-dimethoxy-phenyl)-quinoline-8-carboxylic acid [5-(4-methyl-piperazin-1-ylmethyl)-pyridin-2-yl]amide] | > 7.00 | – |
| COc1cc(OC)c(Cl)c(-c2ccc(C(=O)Nc3ccc(CN4CCN(C)CC4)nc3)c3ncccc23)c1Cl [Example 168, 5-(2,6-Dichloro-3,5-dimethoxy-phenyl)-quinoline-8-carboxylic acid [6-(4-methyl-piperazin-1-ylmethyl)-pyridin-3-yl]amide] | 6.30 to 7.00 | – |

Results, then the compound that gave them:

| pIC50 [1] | pIC50 [2] | Compound |
| --- | --- | --- |
| > 7.00 | – | COc1cc(OC)c(Cl)c(-c2ccc(C(=O)Nc3ccc(OCCN(C)C)cc3)c3nccnc23)c1Cl [Example 5, 8-(2,6-Dichloro-3,5-dimethoxy-phenyl)-quinoxaline-5-carboxylic acid [4-(2-dimethylamino-ethoxy)-phenyl]-amide] |
| – | < 5.00 | COc1cc(OC)c(Cl)c(-c2ccc(C(=O)Nc3nnc[nH]3)c3nccnc23)c1Cl [Example 17, 8-(2,6-Dichloro-3,5-dimethoxy-phenyl)-quinoxaline-5-carboxylic acid (4H-[1,2,4]triazol-3-yl)-amide] |
| > 7.00 | – | CCN1CCN(Cc2ccc(NC(=O)c3ccc(-c4c(F)c(OC)cc(OC)c4F)c4nccnc34)cn2)CC1 [Example 88, 8-(2,6-Difluoro-3,5-dimethoxy-phenyl)-quinoxaline-5-carboxylic acid [6-(4-ethyl-piperazin-1-ylmethyl)-pyridin-3-yl]-amide] |
| – | < 5.00 | CCN1CCN(Cc2ccc(NC(=O)c3ccc(-c4cc(C)c[n+]([O-])c4C)c4nccnc34)nc2)CC1 [Example 99, 8-(2,5-Dimethyl-1-oxy-pyridin-3-yl)-quinoxaline-5-carboxylic acid [5-(4-ethyl-piperazin-1-ylmethyl)-pyridin-2-yl]-amide] |
| 6.30 to 7.00 | – | COc1cc(OC)c(Cl)c(-c2ccc(C(=O)Nc3ccc(CN4CCS(=O)(=O)CC4)cn3)c3nccnc23)c1Cl [Example 104, 8-(2,6-Dichloro-3,5-dimethoxy-phenyl)-quinoxaline-5-carboxylic acid [5-(1,1-dioxothiomorpholin-4-ylmethyl)-pyridin-2-yl]-amide] |
| 4.30 to 6.30 | – | CCN1CCN(Cc2ccc(NC(=O)c3ccc(-c4cc(OC)cc(OC)c4)c4nccnc34)nc2)CC1 [Example 115, 8-(3,5-Dimethoxy-phenyl)-quinoxaline-5-carboxylic acid [5-(4-ethyl-piperazin-1-ylmethyl)-pyridin-2-yl]-amide] |
| 4.30 to 6.30 | – | COc1cc(OC)cc(-c2ccc(C(=O)Nc3ccc(CN4CCNCC4)cn3)c3nccnc23)c1 [Example 117] |
| > 7.00 | – | COc1cc(OC)c(F)c(-c2ccc(C(=O)Nc3nc(CN4CCN(C)CC4)c[nH]3)c3nccnc23)c1F [Example 141, 8-(2,6-Difluoro-3,5-dimethoxy-phenyl)-quinoxaline-5-carboxylic acid [4-(4-methyl-piperazin-1-ylmethyl)-1H-imidazol-2-yl]-amide] |
| > 7.00 | – | CCN1CCN(c2ccc(NC(=O)c3ccc(-c4c(Cl)c(OC)cc(OC)c4Cl)c4cccnc34)cc2)CC1 [Example 159, 5-(2,6-Dichloro-3,5-dimethoxy-phenyl)-quinoline-8-carboxylic acid [4-(4-ethyl-piperazin-1-yl)-phenyl]-amide] |
| 4.30 to 6.30 | – | COc1cc(OC)c(Cl)c(-c2ccc(C(=O)Nc3nccn3Cc3ccccc3)c3ncccc23)c1Cl [Example 160, 5-(2,6-Dichloro-3,5-dimethoxy-phenyl)-quinoline-8-carboxylic acid (1-benzyl-1H-imidazol-2-yl)-amide] |
| 6.30 to 7.00 | – | COc1cc(OC)c(Cl)c(-c2ccc(C(=O)Nc3cnc[nH]3)c3ncccc23)c1Cl [Example 162, 5-(2,6-Dichloro-3,5-dimethoxy-phenyl)-quinoline-8-carboxylic acid (3H-imidazol-4-yl)-amide] |
| 6.30 to 7.00 | – | CCN1CCN(Cc2ccc(NC(=O)c3ccc(-c4c(Cl)c(OC)cc(OC)c4Cl)c4cccnc34)nc2)CC1 [Example 165, 5-(2,6-Dichloro-3,5-dimethoxy-phenyl)-quinoline-8-carboxylic acid [5-(4-ethyl-piperazin-1-ylmethyl)-pyridin-2-yl]-amide] |
